The source made the active and inactive calls. No cut-off for these calls is given here.
Key:
[1] = test system: Bacillus subtilis; assay: Antimicrobial activity against Bacillus subtilis 1021; format: functional, organism-based
[2] = test system: Staphylococcus aureus; assay: Antimicrobial activity against methicillin sensitive Staphylococcus aureus CCARM 0205; format: functional, organism-based
[3] = test system: PANC-1; assay: Cytotoxicity against human PANC-1 cells assessed as reduction in cell viability at 10 to 100 uM incubated for 72 hrs by MTT assay; format: functional, cell-based; conditions: dose 10-100 µM
[4] = test system: Staphylococcus aureus; assay: Antimicrobial activity against methicillin sensitive Staphylococcus aureus CCARM 0204; format: functional, organism-based
[5] = test system: Staphylococcus epidermidis; assay: Antimicrobial activity against Staphylococcus epidermidis 1917; format: functional, organism-based
[6] = test system: Escherichia coli; assay: Antimicrobial activity against Escherichia coli 2441; format: functional, organism-based
[7] = test system: Salmonella typhimurium; assay: Antimicrobial activity against Salmonella typhimurium 2515; format: functional, organism-based; conditions: Salmonella enterica subsp. enterica serovar Typhimurium
[8] = test system: Staphylococcus aureus; assay: Antimicrobial activity against methicillin sensitive Staphylococcus aureus CCARM 3635; format: functional, organism-based
[9] = test system: RAW264.7; assay: Inhibition of nitric oxide production in LPS-activated mouse RAW264.7 cells; format: functional, cell-based
[10] = test system: Staphylococcus aureus; assay: Antimicrobial activity against methicillin sensitive Staphylococcus aureus CCARM 3090; format: functional, organism-based
[11] = test system: PANC-1; assay: Antimetastatic activity in human PANC-1 cells assessed as decrease in migration at 80 uM incubated for 48 hrs by scratch wound healing assay relative to control; format: functional; parameters: scale not given: the % may be the effect or the level left

SMILES | Activity [1] | Activity [2] | Activity [3] | Activity [4] | Activity [5] | Activity [6] | Activity [7] | Activity [8] | inhibition [9] | Activity [10] | Activity [11] [%]
CC[C@@H](C)[C@H]1NC(=O)c2ccccc2NC(=O)[C@@H]2CCCN2C(=O)[C@@H]([C@H](C)CC)NC(=O)[C@H](C)NC(=O)[C@H]([C@@H](C)O)NC(=O)[C@@H](Cc2ccc(O)cc2)NC1=O | inactive | inactive | inactive | inactive | inactive | inactive | inactive | inactive | inactive | inactive | 48
CC[C@@H](C)[C@H]1NC(=O)[C@H](C)NC(=O)[C@H]([C@@H](C)O)NC(=O)[C@@H](Cc2ccc(O)cc2)NC(=O)[C@@H](C(C)C)NC(=O)c2ccccc2NC(=O)[C@@H]2CCCN2C1=O | inactive | inactive | inactive | inactive | inactive | inactive | inactive | inactive | inactive | inactive | 52
CC[C@@H](C)[C@H]1NC(=O)c2ccccc2NC(=O)[C@@H]2CCCN2C(=O)[C@@H](CC(C)C)NC(=O)[C@H](C)NC(=O)[C@H]([C@@H](C)O)NC(=O)[C@@H](Cc2ccc(O)cc2)NC1=O | inactive | inactive | inactive | inactive | inactive | inactive | inactive | inactive | inactive | inactive | 
